# Test results: patent US9861702B2, “Lipid-conjugated rhamnose for immune system recruitment and oncotherapy” (WISCONSIN ALUMNI RESEARCH FOUNDATION, priority 2012, dated 2018)
# “Also recorded” adds a separate entry of the source. Where two headings read alike, the source gives them in different places.
# How the values were obtained:
# complement component C4d = assay: Activation of complement, deposition of complement component C4d on treated M21 cells, flow cytometry; type: cell-based; settings: 25% normal human serum, 1 hour at 37° C.
# Procedure: FIG. 6 is a graph showing the results of flow cytometry measurements of M21 cells treated with the indicated rhamnose-lipid conjugates, or with an antibody known to activate complement (14.18) exposed to normal human serum and subsequently stained for C4d, a marker of complement activation.
# Rhamnose-lipid conjugates 4 (Rha1-DPoPE) and 51 (Rha2-DPoPE) were synthesized as described in Example 1. The ability of these compounds to activate complement was tested by looking for deposition of complement component C4d. M21 cells treated with buffer, rha1-DPoPE, rha2-DPoPE, or a control antibody known to activate complement (14.18) were exposed to 25% normal human serum for 1 hour at 37° C., washed and stained for C4d, and analyzed by flow cytometry. […] The 14.18 antibody employed was the Ch14.18-IL2 fusion protein [Gillies, S D; Lan, Y; Lo, K M; Super, M; Wesolowski, J (1999) “Improving the efficacy of antibody-interleukin 2 fusion proteins by reducing their interaction with Fc receptors.” Cancer Research vol. 59 (9) p. 2159-66.]
# M21 cells [1] = type: cell-based; settings: normal donor serum, FIG. 9
# Procedure: The requisite amount of chloroform solution containing each lipid compound was measured into a glass vial. Chloroform was removed by blowing argon into the vial until all solvent was evaporated leaving a lipid film on the glass. The lipid film was hydrated with sufficient buffer (HBSS with 1% BSA) to yield a 0.1 mM solution for 30 minutes at room temperature. The vials were then sonicated in a water bath sonicator to cause the lipids to sheet off of the glass. It is believed that the lipids form vesicle structures in the buffer.
# M21 cells were plated in a 12-well plate and allowed to grow over night. The next morning, the growth medium was removed and replaced with 0.5 mL of buffer (control) or lipid suspension. Cells were incubated in contact with lipids for 1 hour at 37° C. to allow for lipid insertion. The lipid suspension was then aspirated and cells were striped from the plate with 1 mM EDTA in PBS pH 7.4. The EDTA/cell suspensions were diluted ˜1:1 with HBSS/BSA buffer, spun down and resuspended at 500,000 cells mL^−1. Cell samples where CD55 and CD59 were to remain functional were diluted 1:1 in HBSS/BSA buffer. Cell samples in which complement inhibitory factors were to be blocked were diluted 1:1 with HBSS/BSA containing 20 μg/mL of each blocking antibody (anti-CD55: clone 143-30 from Southern Biotech, anti-CD59: clone MEM-43 from Novus Biologicals) for a final concentration of 10 μg/mL of each antibody.
# Cell suspensions (50 μL) were added to an opaque white 96-well plate in sextuplicate. […] (See plate illustration FIG. 7.) The plate was incubated at 37° C. for two hours to allow for complement activation and cell killing. After 2 hours, the plate was removed from the incubator and allowed to come to room temperature. […] Luminescence was read on a Tecan M1000 plate reader.
# Luminescence values were averaged for each set of triplicate wells. Since luminescence correlates to viable cells and the heat killed serum wells provide a measure of non-specific cell death, the fraction of viable cells for each condition is calculated as (avg. luminescencenormal serum)/(avg. luminescenceheat killed serum). […]
# FIG. 9 is a graph presenting results in terms of % viable cells for an experiment conducted with M21 cells as noted above which compared treatment of cells with lipid alone serum alone (negative control) (DPoPE), lipid+addition of CD55 and CD59 blocking antibodies, Rha2-lipid 51, Rha2-lipid 51+CD55 and CD59 blocking antibodies, 14.18-IL2 antibody (positive control), and 14.18-IL@antibody+CD55 and CD59 blocking antibodies. […] Cell Titer-Glo® assay (Promega) was used to measure living cells, Viability=(luminescence in wells treated with normal serum)/(luminescence of wells treated with heat inactivated serum).
# M21 cells [2] = assay: Chromium-51 release assay (CDC / ADCC); type: cell-based
# Procedure: Experiments were performed using the art-recognized Chromium-51 (^51Cr) release assay to assess if Rha2-lipid conjugate 51 was capable of activating cellular responses ADCC.
# M21 cells were treated with lipid as described in Example 6. Target cells are labeled with ^51Cr and the release of label is a measure of cell cytolysis. In this case, the cells were contacted with Na^51Cr label overnight which is somewhat longer than is typically employed in the assay.
# This confirms results from Example 6 that Rha2-DPoPE was able to mediate CDC. Peripheral blood mononuclear cells (PBMCs) include immune effector cells some of which express CD16, the most important class of which is natural killer cells.
# M21 cells [3] = assay: Fluorescent lipid insertion levels, quantitative flow cytometry with calibration beads; type: cell-based
# From the text: FIG. 5 is a graph showing the results of flow cytometry measurements to assess the levels of insertion of fluorescent lipid conjugates into M21 cells. See Example 4 and Scheme 6 for details. Under the treatment conditions used, insertion levels of approximately 3×10^6 lipids per cell was achieved. All three fluorescent labeled lipids inserted robustly into the cell membrane.
# To estimate lipid insertion levels into model cells, three fluorescent lipid derivatives were synthesized: 101 an Alexa-Fluor® 488 dye conjugated to cholesterol, 102 Alexa-Fluor® 488 dye (Life Technologies) conjugated to POPE and 103 an Alexa-Fluor® 488 dye conjugated to DPoPE. M21 cells were treated with these lipids and assessed by quantitative flow cytometry using calibration beads to determine the number of fluorophores per cell. The results are illustrated in FIG. 5.
# [4] = test system: antibodies in human serum; assay: Stability of antigen-antibody complexes in serum, SPR loss of response units over 1 hour; type: binding; settings: over one hour, corrected RU
# Procedure: FIG. 3 also includes a Table showing percentage loss calculated as (RUT2)/RuT1. All RU were corrected by reference subtraction.
# The relative stability of antigen-antibody complexes for DNP, αGal and Rha in serum was assessed by evaluating RU (corrected RU) as a function of time (over 1 hour). FIG. 3 illustrates the decay of RU with time for antigen-antibody complexes for the three antigens. Due to the complexity of these systems, exact kinetic parameters could not be determined; however the loss of response units over time provides an estimate rank ordering of dissociation rates and complex longevity.
# M21 cells [5] = assay: DNP-lipid insertion into cell membranes, anti-DNP staining, flow cytometry; type: cell-based; settings: M21 cells treated with DNP-lipid, stained with anti-DNP
# From the text: FIG. 4 is a graph showing the results of flow cytometry measurement of M21 cells treated with or without DNP-lipid and stained with anti-DNP. DNP-lipid 100 (Avanti Polar Lipids, Alabaster, Ala.) was used for the experiment.
# As an initial assessment of antigen-lipid insertion into cell membranes, a hapten-lipid conjugate, DNP-lipid (100, a dipalmitoleoyl phosphatidylethanolamine-DNP conjugate) and anti-DNP-antibody were used to determine if (1) lipids would insert into model M21 cell line and (2) if the antigen headgroups of the antigen-lipid conjugates would remain accessible to antibodies. M21 cells treated with the DNP-lipid followed by staining with anti-DNP were analyzed by flow cytometry (FIG. 4).
# [6] = test system: antibodies in human serum; assay: Biosensor (SPR) analysis of antibody levels in human serum against immobilized biotinylated antigens; type: binding; settings: 10% serum, after 5 minutes of serum exposure, biotinylated antigen on streptavidin chip
# From the text: Biosensor analysis was used to evaluate levels of antibodies in human serum. Surface plasmon resonance (SPR) is an information-rich technique requiring only small amounts of material, and surfaces with immobilized compounds can be regenerated and used multiple times. Although this technique is most often associated with determination of kinetic parameters, it is also useful for rank ordering interactions with ligands and antibody characterization, and is compatible with serum. […] The biotinylated antigens were immobilized on streptavidin-coated sensor chips along with a biotinylated control peptide in a reference channel. Serum was collected from healthy volunteer donors under IRB-approved Human Subjects minimal risk protocol M-2005-1282 at the University of Wisconsin-Madison. To limit bulk refractive index changes and keep signal within the instrument's detection range, solutions of 10% serum were flowed across the chip, contacting antigens in this order: […] As a measure of antibody prevalence, corrected response units (RUantigen-RUreference) bound to each flow channel were compared after 5 minutes of serum exposure; more RU indicated greater antibody binding and therefore, a higher titer. […] Antibodies to rhamnose were further assessed with ELISA assays using immobilized rhamnose-BSA.
# [7] = plus CD55 and CD59 blocking antibodies 10 μg/mL each
molecule,measurement,setting,value
"CCCCCC/C=C\CCCCCCCC(=O)OC[C@H](COP(=O)(O)OCCNCCCCO[C@@H]1OC(C)[C@H](O)[C@H](O)C1O)OC(=O)CCCCCCC/C=C\CCCCCC (some centres unmarked) [Compound 4, Rha1-DPoPE]",complement activation (C4d staining),complement component C4d,activated complement
"CCCCCC/C=C\CCCCCCCC(=O)OC[C@H](COP(=O)(O)OCCN(CCCCO[C@@H]1OC(C)[C@H](O)[C@H](O)C1O)CCCCO[C@@H]1OC(C)[C@H](O)[C@H](O)C1O)OC(=O)CCCCCCC/C=C\CCCCCC (some centres unmarked) [Compound 51, Rha2-DPoPE]",complement activation (C4d staining),complement component C4d,more efficient
same,% viability,M21 cells [1]; CD55 and CD59 functional,large decrease in viability
same,% viability,M21 cells [1]; [7],significantly amplified
same,"51Cr release (cytotoxicity, CDC)","M21 cells [2]; serum alone, FIG. 10 left bar",Cr-51 was released
same,51Cr release (cytotoxicity),"M21 cells [2]; serum with PBMCs added, FIG. 10 right bar",cytotoxicity increased
CC(C)CCC[C@@H](C)[C@H]1CC[C@H]2[C@@H]3CC=C4C[C@H](OC(=O)NCCOCCOCCNC(=O)c5cccc(-c6c7ccc(=N)c(S(=O)(=O)O)c-7oc7c(S(=O)(=O)O)c(N)ccc67)c5C(=O)O)CC[C@]4(C)[C@H]3CC[C@]12C [Compound 101],"insertion into cell membranes, copy numbers (fluorophores per cell)",M21 cells [3],around 3×10^6
"O=[N+]([O-])c1ccc(O)c([N+](=O)[O-])c1 [DNP, 2,4-dinitrophenol]",loss of binding signal (response units) of antigen-antibody complex over time,[4],signal loss was greater
CCCCCCCCCCCCCCCC(=O)OC[C@H](COP(=O)(O)OCCNC(=O)CCCCCNc1ccc([N+](=O)[O-])cc1[N+](=O)[O-])OC(=O)CCCCCCCCCCCCCCC.N [DNP-lipid],"anti-DNP staining shift (membrane insertion, antigen head group accessibility)",M21 cells [5],positive shift
"CCCCCC/C=C\CCCCCCCC(=O)OC[C@H](COP(=O)(O)OCCN)OC(=O)CCCCCCC/C=C\CCCCCC [DPoPE, 1,2-dipalmitoleoyl-sn-glycero-3-phosphoethanolamine]",% viability,M21 cells [1]; CD55 and CD59 functional,remain equally viable
same,% viability,M21 cells [1]; [7],slight negative impact on cell survival
"OC[C@H]1O[C@H](O[C@H]2[C@@H](O)[C@@H](CO)OC(O)[C@@H]2O)[C@H](O)[C@@H](O)[C@H]1O (stereo partly drawn) [αGal, Gal-α-1,3-Gal]",loss of binding signal (response units) of antigen-antibody complex over time,[4],signal loss was greater
rhamnose,"antibody prevalence (corrected response units bound, RUantigen-RUreference)",[6],more prevalent than those recognizing αGal in all cases; also recorded: equivalent or better to those recognizing DNP in most cases
same,loss of binding signal (response units) of antigen-antibody complex over time,[4],affinity advantage over those of both αGal and DNP
